The assay relates to Mus musculus. Description: Tested for inhibitory activity against CT strain of Trypanosoma rhodesiense infected mice after administration at 106 mg/kg; Not active. It counts as functional, organism-based. Set-up: dose 106 mg/kg.

As for `COc1ccc(CC(N)C(=O)NC2C(C)OC(n3cnc4c(N(C)C)ncnc43)C2O)cc1` (stereo unspecified), the IC50 entry is on record as “Not Active”.

The values above are taken from ChEMBL document CHEMBL1121769, “5'Chloropuromycin. Inhibition of protein synthesis and antitrypanosomal activity” (J Med Chem, 1981).
